In ChEMBL document CHEMBL3885861, “Open TG-GATES”:

Organism: Rattus norvegicus
Assay: Open TG-GATES - Regimen: Single
Assay type: toxicity, organism-based, Sprague-Dawley
Design: regimen Single, gender Male, age 6 weeks
Conditions: in vivo, iv, route intravenous injection; for K / LDH / Na / PL / RALB / TBIL / TC / TG / TP / gamma-GTP / A/G / ALP / ALT / AST / BUN / CRE / Ca / Cl / DBIL / GLC / IP: tissue Plasma; for APTT / Bas / Eos / Fbg / Hb / Ht / Lym / MCH / MCHC / MCV / Mono / Neu / PT / Plat / RBC / Ret / WBC: tissue Blood; for KIDNEY_L / KIDNEY_R / KIDNEY_TOTAL: tissue Kidney; for LIVER: tissue Liver
[1] = 3 mg/kg, 3 h, dose level Middle
[2] = 3 mg/kg, 6 h, dose level Middle
[3] = 3 mg/kg, 9 h, dose level Middle
[4] = 3 mg/kg, 24 h, dose level Middle

Compound: C[C@@H]1C[C@@H]([C@H](O)CC2CC(=O)NC(=O)C2)C(=O)[C@@H](C)C1 [CYCLOHEXIMIDE]
- K (1 mg/kg, 24 h, dose level Low): 4.4 meq/L
- LDH (1 mg/kg, 24 h, dose level Low): 149.2 IU/L
- Na (1 mg/kg, 24 h, dose level Low): 139.8 meq/L
- PL (1 mg/kg, 24 h, dose level Low): 110.4 mg/dL
- RALB (1 mg/kg, 24 h, dose level Low): 2.6 g/dL
- TBIL (1 mg/kg, 24 h, dose level Low): 0.028 mg/dL
- TC (1 mg/kg, 24 h, dose level Low): 51.4 mg/dL
- TG (1 mg/kg, 24 h, dose level Low): 169.6 mg/dL
- TP (1 mg/kg, 24 h, dose level Low): 4.6 g/dL
- gamma-GTP (1 mg/kg, 24 h, dose level Low): 1.6 IU/L
- TERMINAL_BW [1]: 221.6 g
- APTT [1]: 22.4 s
- Bas [1]: 0%
- Eos [1]: 0.6%
- Fbg [1]: 296.6 mg/dL
- Hb [1]: 13.7 g/dL
- Ht [1]: 41.1%
- Lym [1]: 73.2%
- MCH [1]: 21.6 pg
- MCHC [1]: 33.4%
- MCV [1]: 64.6 fL
- Mono [1]: 0.8%
- Neu [1]: 24.8%
- PT [1]: 17.4 s
- Plat [1]: 132.2 x10_4/uL
- RBC [1]: 636.8 x10_4/ul
- Ret [1]: 9.2%
- WBC [1]: 217.3 x10_2/uL
- KIDNEY_L [1]: 1 g
- KIDNEY_R [1]: 1 g
- KIDNEY_TOTAL [1]: 2 g
- LIVER [1]: 9.6 g
- A/G [1]: 1.3
- ALP [1]: 1376.2 IU/L
- ALT [1]: 58 IU/L
- AST [1]: 140.8 IU/L
- BUN [1]: 32.6 mg/dL
- CRE [1]: 0.1 mg/dL
- Ca [1]: 9.8 mg/dL
- Cl [1]: 109.4 meq/L
- DBIL [1]: 0.004 mg/dL
- GLC [1]: 170.4 mg/dL
- IP [1]: 9.8 mg/dL
- K [1]: 4.7 meq/L
- LDH [1]: 364.6 IU/L
- Na [1]: 142.2 meq/L
- PL [1]: 80 mg/dL
- RALB [1]: 2.8 g/dL
- TBIL [1]: 0.018 mg/dL
- TC [1]: 59.4 mg/dL
- TG [1]: 52.4 mg/dL
- TP [1]: 5.1 g/dL
- gamma-GTP [1]: 2 IU/L
- TERMINAL_BW [2]: 221.4 g
- APTT [2]: 25.3 s
- Bas [2]: 0%
- Eos [2]: 0.4%
- Fbg [2]: 276 mg/dL
- Hb [2]: 14.1 g/dL
- Ht [2]: 42.1%
- Lym [2]: 60.4%
- MCH [2]: 21.2 pg
- MCHC [2]: 33.6%
- MCV [2]: 63.1 fL
- Mono [2]: 1%
- Neu [2]: 38%
- PT [2]: 21.1 s
- Plat [2]: 123.7 x10_4/uL
- RBC [2]: 668 x10_4/ul
- Ret [2]: 8.3%
- WBC [2]: 191.1 x10_2/uL
- KIDNEY_L [2]: 1 g
- KIDNEY_R [2]: 1 g
- KIDNEY_TOTAL [2]: 2 g
- LIVER [2]: 8.6 g
- A/G [2]: 1.4
- ALP [2]: 1008.6 IU/L
- ALT [2]: 63 IU/L
- AST [2]: 134.2 IU/L
- BUN [2]: 29.2 mg/dL
- CRE [2]: 0.1 mg/dL
- Ca [2]: 7.2 mg/dL
- Cl [2]: 104.2 meq/L
- DBIL [2]: 0.006 mg/dL
- GLC [2]: 139.6 mg/dL
- IP [2]: 11.6 mg/dL
- K [2]: 4.2 meq/L
- LDH [2]: 232.2 IU/L
- Na [2]: 138.2 meq/L
- PL [2]: 62.8 mg/dL
- RALB [2]: 2.8 g/dL
- TBIL [2]: 0.014 mg/dL
- TC [2]: 39.6 mg/dL
- TG [2]: 66.4 mg/dL
- TP [2]: 4.9 g/dL
- gamma-GTP [2]: 1.8 IU/L
- TERMINAL_BW [3]: 215.9 g
- APTT [3]: 27.9 s
- Bas [3]: 0%
- Eos [3]: 0.6%
- Fbg [3]: 255.2 mg/dL
- Hb [3]: 13.6 g/dL
- Ht [3]: 41%
- Lym [3]: 56.4%
- MCH [3]: 21.1 pg
- MCHC [3]: 33.1%
- MCV [3]: 63.7 fL
- Mono [3]: 1.2%
- Neu [3]: 41.8%
- PT [3]: 22.1 s
- Plat [3]: 117.3 x10_4/uL
- RBC [3]: 643 x10_4/ul
- Ret [3]: 7.8%
- WBC [3]: 199.4 x10_2/uL
- KIDNEY_L [3]: 1 g
- KIDNEY_R [3]: 1 g
- KIDNEY_TOTAL [3]: 1.9 g
- LIVER [3]: 8.6 g
- A/G [3]: 1.5
- ALP [3]: 1011.2 IU/L
- ALT [3]: 51.4 IU/L
- AST [3]: 111 IU/L
- BUN [3]: 20.8 mg/dL
- CRE [3]: 0.1 mg/dL
- Ca [3]: 8 mg/dL
- Cl [3]: 105.6 meq/L
- DBIL [3]: 0.012 mg/dL
- GLC [3]: 151.6 mg/dL
- IP [3]: 8.9 mg/dL
- K [3]: 3.8 meq/L
- LDH [3]: 189.4 IU/L
- Na [3]: 139.4 meq/L
- PL [3]: 75.8 mg/dL
- RALB [3]: 2.8 g/dL
- TBIL [3]: 0.012 mg/dL
- TC [3]: 47.2 mg/dL
- TG [3]: 70.2 mg/dL
- TP [3]: 4.9 g/dL
- gamma-GTP [3]: 1 IU/L
- TERMINAL_BW [4]: 220.9 g
- APTT [4]: 30.4 s
- Bas [4]: 0%
- Eos [4]: 0%
- Fbg [4]: 293.6 mg/dL
- Hb [4]: 13.2 g/dL
- Ht [4]: 39.9%
- Lym [4]: 66.4%
- MCH [4]: 20.3 pg
- MCHC [4]: 33%
- MCV [4]: 61.6 fL
- Mono [4]: 1.4%
- Neu [4]: 30.8%
- PT [4]: 18.9 s
- Plat [4]: 112.9 x10_4/uL
- RBC [4]: 647.6 x10_4/ul
- Ret [4]: 5.3%
- WBC [4]: 276.2 x10_2/uL
- KIDNEY_L [4]: 1 g
- KIDNEY_R [4]: 1 g
- KIDNEY_TOTAL [4]: 2 g
- LIVER [4]: 9.6 g
- A/G [4]: 1.3
- ALP [4]: 739.4 IU/L
- ALT [4]: 25.2 IU/L
- AST [4]: 65.8 IU/L
- BUN [4]: 11 mg/dL
- CRE [4]: 0.2 mg/dL
